Results on 29 compounds are retold here after article PMC5920526 (ACS catalysis, 2017).

For orientation: inhibition means the relative decrease from the control value, in per cent. Usually IC50 stands for the concentration that gives 50% inhibition.

Experiment [1] deals with SpNanC. As to the kind of experiment: Substrate specificity of SpNanC with pNP-tagged α2–3-linked sialosides. The experiment is classed as biochemical, Streptococcus pneumoniae. Particulars: for Percentage conversion: sialoside as substrate of SpNanC; for yield of cleavage by SpNanC: reactions using 3 μg of SpNanC.
In a further experiment the target is SpNanA (Streptococcus pneumoniae, UniProt P62575). As to the kind of experiment: biochemical.
For another experiment, the target named is SpNanB (Streptococcus pneumoniae serotype 4, UniProt Q54727). As to the kind of experiment: Sialidase inhibition, Neu5Acα2–3GalβpNP as substrate. The experiment is classed as biochemical. Particulars: 0.1 mM inhibitor.
Experiment [2] concerns SpNanC. The experiment is described as above. The experiment is classed as biochemical, Streptococcus pneumoniae. Particulars: 0.1 mM inhibitor.
For another experiment, the target named is PmST1 (Pasteurella multocida, UniProt Q15KI8). The experiment is classed as biochemical. Particulars: 0.1 mM inhibitor.
The next experiment has as its target BiNanH2 (Bifidobacterium longum subsp. infantis, UniProt A0ACD7UU12). As to the kind of experiment: Sialidase inhibition, Neu5Acα2–3GalβpNP as substrate. The experiment is classed as biochemical.
The next experiment addresses AuSialidase (Paenarthrobacter ureafaciens, UniProt Q5W7Q2). The experiment is described as above. The experiment is classed as biochemical, Arthrobacter ureafaciens.
In the next experiment the target is CpNanH (Clostridium perfringens, UniProt P10481). The experiment is classed as biochemical.
For a further experiment, the system named is CpNanI. The experiment is classed as biochemical, Clostridium perfringens. The conditions noted are these: 0.1 mM inhibitor.
The target of another experiment is VcSialidase (Vibrio cholerae serotype O1, UniProt P0C6E9). As to the kind of experiment: biochemical.
Experiment [3] concerns the target human cytosolic sialidase hNEU2 (Homo sapiens, UniProt Q9Y3R4). As to the kind of experiment: Sialidase inhibition, Neu5Acα2–3GalβpNP as substrate. The experiment is classed as biochemical. Particulars: 0.1 mM inhibitor.

Where only a bound is given, the exact number is not on record here.

The compound `O=C(O)[C@@]1(O[C@H]2[C@@H](O)[C@@H](CO)O[C@@H](Oc3ccc([N+](=O)[O-])cc3)[C@@H]2O)C[C@H](O)[C@@H](F)[C@H]([C@H](O)[C@H](O)CO)O1` [Kdn5Fα2–3GalβpNP] registered a Percentage conversion in the experiment on SpNanC [1] of 0.48 ± 0.00%.

`[N-]=[N+]=NC1C(O)CC(OC2C(O)C(CO)OC(Oc3ccc([N+](=O)[O-])cc3)C2O)(C(=O)O)OC1C(O)C(O)CO` (stereo not drawn) [Kdn5N3α2–3GalβpNP]: the Percentage conversion in the experiment with SpNanC [1] worked out at 0.32 ± 0.45%.

As for `CO[C@H]1[C@H]([C@H](O)[C@H](O)CO)O[C@](O[C@H]2[C@@H](O)[C@@H](CO)O[C@@H](Oc3ccc([N+](=O)[O-])cc3)[C@@H]2O)(C(=O)O)C[C@@H]1O` [Kdn5OMeα2–3GalβpNP], the Percentage conversion with SpNanC [1] turned out to be 1.53 ± 1.02%.

Take `O=C(O)C1(OC2C(O)C(CO)OC(Oc3ccc([N+](=O)[O-])cc3)C2O)CC(O)CC(C(O)C(O)CO)O1` (stereo not shown) [Kdn5deoxyα2–3GalβpNP]: the Percentage conversion in the experiment on SpNanC [1] is 5.31 ± 0.23%.

Take `O=C(O)[C@]1(O[C@H]2[C@@H](O)[C@@H](CO)O[C@@H](Oc3ccc([N+](=O)[O-])cc3)[C@@H]2O)C[C@H](O)[C@@H](O)[C@H]([C@H](F)[C@H](O)CO)O1` [Kdn7Fα2–3GalβpNP]: in the experiment on SpNanC [1], the Percentage conversion is 0.56 ± 0.11%.

In turn, `[N-]=[N+]=NC(C(O)CO)C1OC(OC2C(O)C(CO)OC(Oc3ccc([N+](=O)[O-])cc3)C2O)(C(=O)O)CC(O)C1O` (stereo not drawn) [Kdn7N3α2–3GalβpNP] displayed a Percentage conversion in the experiment with SpNanC [1] of 4.50 ± 0.45%.

For `CO[C@@H]([C@@H]1O[C@](O[C@H]2[C@@H](O)[C@@H](CO)O[C@@H](Oc3ccc([N+](=O)[O-])cc3)[C@@H]2O)(C(=O)O)C[C@H](O)[C@H]1O)[C@H](O)CO` [Kdn7OMeα2–3GalβpNP], in the experiment with SpNanC [1], the “yield of cleavage by SpNanC” value was 23% and the Percentage conversion is 23.4 ± 3.3%.

With `O=C(O)C1(OC2C(O)C(CO)OC(Oc3ccc([N+](=O)[O-])cc3)C2O)CC(O)C(O)C(CC(O)CO)O1` (stereo not shown) [Kdn7deoxyα2–3GalβpNP], in the experiment with SpNanC [1], the “yield of cleavage by SpNanC” value is recorded as 10% and the Percentage conversion is recorded as 10.1 ± 0.0%.

On to `O=C(O)C1(OC2C(O)C(CO)OC(Oc3ccc([N+](=O)[O-])cc3)C2O)CC(O)C(O)C(C(O)C(O)CF)O1` (stereo not shown) [Kdn9Fα2–3GalβpNP], for which the Percentage conversion with SpNanC [1] is reported as 3.70 ± 1.14%.

`COCC(O)C(O)C1OC(OC2C(O)C(CO)OC(Oc3ccc([N+](=O)[O-])cc3)C2O)(C(=O)O)CC(O)C1O` (stereo not shown) [Kdn9OMeα2–3GalβpNP] had a Percentage conversion with SpNanC [1] of 4.02 ± 1.36%.

Compound `O=C(O)[C@]1(O[C@H]2[C@@H](O)[C@@H](CO)O[C@@H](Oc3ccc([N+](=O)[O-])cc3)[C@@H]2O)C[C@H](O)[C@@H](O)[C@H]([C@H](O)[C@H](O)CO)O1` [Kdnα2–3GalβpNP] came in with a Percentage conversion in the experiment with SpNanC [1] of 4.50 ± 0.45%.

`CC(=O)NC1C(O)CC(OC2C(O)C(CO)OC(Oc3ccc([N+](=O)[O-])cc3)C2O)(C(=O)O)OC1C(F)C(O)CO` (stereo not shown) [Neu5Ac7Fα2–3GalβpNP]: in the experiment on SpNanC [1], the Percentage conversion was determined as 91.0 ± 4.3%.

In the experiment with SpNanC [1], `CC(=O)NC1C(O)CC(OC2C(O)C(CO)OC(Oc3ccc([N+](=O)[O-])cc3)C2O)(C(=O)O)OC1C(N=[N+]=[N-])C(O)CO` (stereo not drawn) [Neu5Ac7N3α2–3GalβpNP] returned a Percentage conversion of 65.9 ± 1.1%.

Consider `COC(C(O)CO)C1OC(OC2C(O)C(CO)OC(Oc3ccc([N+](=O)[O-])cc3)C2O)(C(=O)O)CC(O)C1NC(C)=O` (stereo not shown) [Neu5Ac7OMeα2–3GalβpNP], for which, in the experiment on SpNanC [1], the Percentage conversion is on record as 96.5 ± 1.7%.

In the experiment with SpNanC [1], `CC(=O)N[C@H]1[C@H](C[C@H](O)CO)O[C@@](O[C@H]2[C@@H](O)[C@@H](CO)O[C@@H](Oc3ccc([N+](=O)[O-])cc3)[C@@H]2O)(C(=O)O)C[C@@H]1O` [Neu5Ac7deoxyα2–3GalβpNP] yielded a Percentage conversion of 91.2 ± 1.8%.

With `CC(=O)N[C@H]1[C@H]([C@H](O)[C@H](O)CF)O[C@@](O[C@H]2[C@@H](O)[C@@H](CO)O[C@@H](Oc3ccc([N+](=O)[O-])cc3)[C@@H]2O)(C(=O)O)C[C@@H]1O` [Neu5Ac9Fα2–3GalβpNP], the Percentage conversion with SpNanC [1] was 75.6 ± 3.9%.

Compound `COCC(O)C(O)C1OC(OC2C(O)C(CO)OC(Oc3ccc([N+](=O)[O-])cc3)C2O)(C(=O)O)CC(O)C1NC(C)=O` (stereo not shown) [Neu5Ac9OMeα2–3GalβpNP] yielded a Percentage conversion in the experiment on SpNanC [1] of 88.5 ± 5.1%.

In the experiment with SpNanC [1], `CC(=O)NC1C(O)CC(OC2C(O)C(CO)OC(Oc3ccc([N+](=O)[O-])cc3)C2O)(C(=O)O)OC1C(O)C(C)O` (stereo not shown) [Neu5Ac9deoxyα2–3GalβpNP] returned a Percentage conversion of 93.5 ± 3.1%.

For `O=C(CF)NC1C(O)CC(OC2C(O)C(CO)OC(Oc3ccc([N+](=O)[O-])cc3)C2O)(C(=O)O)OC1C(O)C(O)CO` (stereo not shown) [Neu5AcFα2–3GalβpNP], the Percentage conversion in the experiment on SpNanC [1] amounted to 74.8 ± 3.2%.

With `[N-]=[N+]=NCC(=O)N[C@H]1[C@H]([C@H](O)[C@H](O)CO)O[C@@](O[C@H]2[C@@H](O)[C@@H](CO)O[C@@H](Oc3ccc([N+](=O)[O-])cc3)[C@@H]2O)(C(=O)O)C[C@@H]1O` [Neu5AcN3α2–3GalβpNP], the Percentage conversion in the experiment on SpNanC [1] came out at 87.9 ± 1.6%.

In turn, `COCC(=O)NC1C(O)CC(OC2C(O)C(CO)OC(Oc3ccc([N+](=O)[O-])cc3)C2O)(C(=O)O)OC1C(O)C(O)CO` (stereo not shown) [Neu5AcOMeα2–3GalβpNP] had a Percentage conversion in the experiment with SpNanC [1] of 81.8 ± 1.7%.

Consider `O=C(CO)NC1C(O)CC(OC2C(O)C(CO)OC(Oc3ccc([N+](=O)[O-])cc3)C2O)(C(=O)O)OC1C(O)C(O)CF` (stereo not shown) [Neu5Gc9Fα2–3GalβpNP], for which the Percentage conversion in the experiment on SpNanC [1] was 72.3 ± 2.6%.

In the case of `[N-]=[N+]=NCC(O)C(O)C1OC(OC2C(O)C(CO)OC(Oc3ccc([N+](=O)[O-])cc3)C2O)(C(=O)O)CC(O)C1NC(=O)CO` (stereo not drawn) [Neu5Gc9N3α2–3GalβpNP], the Percentage conversion with SpNanC [1] stood at 89.5 ± 3.5%.

`COCC(O)C(O)C1OC(OC2C(O)C(CO)OC(Oc3ccc([N+](=O)[O-])cc3)C2O)(C(=O)O)CC(O)C1NC(=O)CO` (stereo not shown) [Neu5Gc9OMeα2–3GalβpNP] had a Percentage conversion with SpNanC [1] of 75.0 ± 1.9%.

Consider `C[C@@H](O)[C@@H](O)[C@@H]1O[C@@](O[C@H]2[C@@H](O)[C@@H](CO)O[C@@H](Oc3ccc([N+](=O)[O-])cc3)[C@@H]2O)(C(=O)O)C[C@H](O)[C@H]1NC(=O)CO` [Neu5Gc9deoxyα2–3GalβpNP], for which the Percentage conversion with SpNanC [1] is on record as 85.5 ± 1.4%.

Turning to `O=C(CO)NC1C(O)CC(OC2C(O)C(CO)OC(Oc3ccc([N+](=O)[O-])cc3)C2O)(C(=O)O)OC1C(O)C(O)CO` (stereo not shown) [Neu5Gcα2–3GalβpNP], the Percentage conversion with SpNanC [1] came out at 80.6 ± 6.7%.

For the compound `CC(=O)N[C@H]1[C@H]([C@H](O)[C@H](O)CO)OC(C(=O)O)=C[C@@H]1O` [compound 6, 2,3-dehydro-2-deoxy-N-acetylneuraminic acid], the inhibition at 100 µM on SpNanA (read-out: inhibition against SpNanA), on BiNanH2 (read-out: inhibition against BiNanH2), at AuSialidase (read-out: inhibition against AuSialidase) and on VcSialidase (read-out: inhibition against VcSialidase) was > 50% throughout. Also, the “inhibitory activity against SpNanB (in words)” value on SpNanB was “not effective inhibitors”. For the same compound, the “inhibitory activity against SpNanC (in words)” value in the experiment with SpNanC [2] was “not effective inhibitors”. Moreover, the “inhibitory activity against PmST1 (in words)” value at PmST1 is on record as “not effective inhibitors”. For the same compound, the “inhibitory activity against CpNanH (in words)” value against CpNanH is listed as “not effective inhibitors”. The “inhibition against CpNanI” value in the experiment on CpNanI is “more than 50%”.

For `O=C(CO)N[C@H]1[C@H]([C@H](O)[C@H](O)CO)OC(C(=O)O)=C[C@@H]1O` [compound 7, 2,3-dehydro-2-deoxy-N-glycolylneuraminic acid], the “inhibitory activity against SpNanB (in words)” value at SpNanB is on record as “not effective inhibitors”. In addition, the “inhibitory activity against SpNanC (in words)” value with SpNanC [2] is listed as “not effective inhibitors”. Also, at PmST1, the “inhibitory activity against PmST1 (in words)” value is on record as “not effective inhibitors”. The “inhibitory activity against CpNanH (in words)” value against CpNanH was “not effective inhibitors”. In addition, the “inhibition against VcSialidase” value against VcSialidase is “more than 50%”. Besides, in [3], the “inhibition against hNEU2” value is “more than 50%”.

`CC(=O)NC[C@@H](O)[C@@H](O)C1OC(C(=O)O)=CC(O)[C@H]1NC(C)=O` (stereo partly shown) [compound 9, Neu5Ac9NAc2en]: the IC50 on SpNanA (read-out: IC50 against SpNanA, Neu5Acα2–3GalβpNP as substrate) came out at 11 ± 0.2 µM; on BiNanH2 (read-out: IC50 against BiNanH2, Neu5Acα2–3GalβpNP as substrate), 33 ± 1 µM. Also, the “inhibitory activity against SpNanB (in words)” value at SpNanB is on record as “not effective inhibitors”. Further, the “inhibitory activity against SpNanC (in words)” value with SpNanC [2] was “not effective inhibitors”. The “inhibitory activity against PmST1 (in words)” value against PmST1 is recorded as “not effective inhibitors”. Also, the “inhibitory activity against AuSialidase (in words)” value on AuSialidase (0.1 mM inhibitor) was “lowered the inhibitory activity”. Also, the “inhibitory activity against CpNanH (in words)” value against CpNanH is listed as “not effective inhibitors”. In addition, on VcSialidase, the “inhibitory activity against VcSialidase (in words)” value is “lowered the inhibitory activity”. The “inhibitory activity against hNEU2 (in words)” value in experiment [3] is recorded as “lowered the inhibitory activity”.
